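Where inhibition never reached the appropriate level, the endpoint shown equals the highest concentration tested. Otherwise, values were interpolated linearly from a five-concentration, 48-hour dose response in 96-well plates. TGI marks complete inhibition of growth.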
Key:
Assay in all cases: NCI anticancer screen, dose series, 48 h
SK-OV-3 ovarian = test system: SK-OV-3 ovarian
UACC-257 melanoma = test system: UACC-257 melanoma
SF-268 CNS = test system: SF-268 CNS
SN12C renal = test system: SN12C renal
LOX IMVI melanoma = test system: LOX IMVI melanoma
A498 renal = test system: A498 renal
OVCAR-8 ovarian = test system: OVCAR-8 ovarian
UACC-62 melanoma = test system: UACC-62 melanoma
SK-MEL-28 melanoma = test system: SK-MEL-28 melanoma
PC-3 prostate = test system: PC-3 prostate
M14 melanoma = test system: M14 melanoma
OVCAR-5 ovarian = test system: OVCAR-5 ovarian
BT-549 breast = test system: BT-549 breast
HT29 colon = test system: HT29 colon
CAKI-1 renal = test system: CAKI-1 renal
SF-539 CNS = test system: SF-539 CNS
SNB-19 CNS = test system: SNB-19 CNS
SW-620 colon = test system: SW-620 colon
SK-MEL-5 melanoma = test system: SK-MEL-5 melanoma
OVCAR-4 ovarian = test system: OVCAR-4 ovarian
HL-60(TB) leukemia = test system: HL-60(TB) leukemia
ACHN renal = test system: ACHN renal
RXF 393 renal = test system: RXF 393 renal
NCI/ADR-RES ovarian = test system: NCI/ADR-RES ovarian
DU-145 prostate = test system: DU-145 prostate
HCC-2998 colon = test system: HCC-2998 colon
MDA-MB-231 breast = test system: MDA-MB-231 breast
NCI-H522 lung = test system: NCI-H522 lung
IGROV1 ovarian = test system: IGROV1 ovarian
EKVX NSCLC = test system: EKVX NSCLC
TK-10 renal = test system: TK-10 renal
NCI-H460 lung = test system: NCI-H460 lung
NCI-H23 lung = test system: NCI-H23 lung
HOP-62 NSCLC = test system: HOP-62 NSCLC
T-47D breast = test system: T-47D breast
HS 578T breast = test system: HS 578T breast
HCT-116 colon = test system: HCT-116 colon
MDA-MB-435 = test system: MDA-MB-435
OVCAR-3 ovarian = test system: OVCAR-3 ovarian
786-0 renal = test system: 786-0 renal
U251 CNS = test system: U251 CNS
SNB-75 CNS = test system: SNB-75 CNS
A549 NSCLC = test system: A549 NSCLC
SF-295 CNS = test system: SF-295 CNS
KM12 colon = test system: KM12 colon
HCT-15 colon = test system: HCT-15 colon
SK-MEL-2 melanoma = test system: SK-MEL-2 melanoma
MOLT-4 leukemia = test system: MOLT-4 leukemia
UO-31 renal = test system: UO-31 renal
MALME-3M melanoma = test system: MALME-3M melanoma
K-562 leukemia = test system: K-562 leukemia
MDA-N = test system: MDA-N
MCF7 breast = test system: MCF7 breast
CCRF-CEM leukemia = test system: CCRF-CEM leukemia
COLO 205 colon = test system: COLO 205 colon
SR leukemia = test system: SR leukemia
RPMI-8226 leukemia = test system: RPMI-8226 leukemia
NCI-H226 lung = test system: NCI-H226 lung

Structure (SMILES): COP(=O)(/C=C/c1cc(C(=O)OCc2ccccc2)n(S(=O)(=O)c2ccccc2)c1)OC
- TGI (SK-OV-3 ovarian): > 100 µM
- TGI (UACC-257 melanoma): > 100 µM
- TGI (SF-268 CNS): > 100 µM
- TGI (SN12C renal): > 100 µM
- TGI (LOX IMVI melanoma): > 100 µM
- TGI (A498 renal): > 100 µM
- TGI (OVCAR-8 ovarian): > 100 µM
- TGI (UACC-62 melanoma): > 100 µM
- TGI (SK-MEL-28 melanoma): > 100 µM
- TGI (PC-3 prostate): > 100 µM
- TGI (M14 melanoma): > 100 µM
- TGI (OVCAR-5 ovarian): > 100 µM
- TGI (BT-549 breast): > 100 µM
- TGI (HT29 colon): > 100 µM
- TGI (CAKI-1 renal): > 100 µM
- TGI (SF-539 CNS): > 100 µM
- TGI (SNB-19 CNS): > 100 µM
- TGI (SW-620 colon): > 100 µM
- TGI (SK-MEL-5 melanoma): > 100 µM
- TGI (OVCAR-4 ovarian): > 100 µM
- TGI (HL-60(TB) leukemia): > 100 µM
- TGI (ACHN renal): > 100 µM
- TGI (RXF 393 renal): > 100 µM
- TGI (NCI/ADR-RES ovarian): > 100 µM
- TGI (DU-145 prostate): > 100 µM
- TGI (HCC-2998 colon): > 100 µM
- TGI (MDA-MB-231 breast): > 100 µM
- TGI (NCI-H522 lung): > 100 µM
- TGI (IGROV1 ovarian): > 100 µM
- TGI (EKVX NSCLC): > 100 µM
- TGI (TK-10 renal): > 100 µM
- TGI (NCI-H460 lung): > 100 µM
- TGI (NCI-H23 lung): > 100 µM
- TGI (HOP-62 NSCLC): > 100 µM
- TGI (T-47D breast): > 100 µM
- TGI (HS 578T breast): > 100 µM
- TGI (HCT-116 colon): > 100 µM
- TGI (MDA-MB-435): > 100 µM
- TGI (OVCAR-3 ovarian): > 100 µM
- TGI (786-0 renal): > 100 µM
- TGI (U251 CNS): > 100 µM
- TGI (SNB-75 CNS): > 100 µM
- TGI (A549 NSCLC): > 100 µM
- TGI (SF-295 CNS): > 100 µM
- TGI (KM12 colon): > 100 µM
- TGI (HCT-15 colon): > 100 µM
- TGI (SK-MEL-2 melanoma): > 100 µM
- TGI (MOLT-4 leukemia): > 100 µM
- TGI (UO-31 renal): > 100 µM
- TGI (MALME-3M melanoma): > 100 µM
- TGI (K-562 leukemia): > 100 µM
- TGI (MDA-N): > 100 µM
- TGI (MCF7 breast): > 100 µM
- TGI (CCRF-CEM leukemia): > 100 µM
- TGI (COLO 205 colon): > 100 µM

Structure (SMILES): Cc1cc(C(=O)CCCCOc2ccc(C3=NCCO3)cc2)c(C)n1C
- TGI (SK-OV-3 ovarian): > 100 µM
- TGI (UACC-257 melanoma): > 100 µM
- TGI (SF-268 CNS): > 100 µM
- TGI (SN12C renal): > 100 µM
- TGI (A498 renal): 86.8 µM
- TGI (OVCAR-8 ovarian): > 100 µM
- TGI (SK-MEL-28 melanoma): 83.1 µM
- TGI (PC-3 prostate): 59.7 µM
- TGI (M14 melanoma): > 100 µM
- TGI (OVCAR-5 ovarian): > 100 µM
- TGI (BT-549 breast): > 100 µM
- TGI (SR leukemia): 54.9 µM
- TGI (HT29 colon): > 100 µM
- TGI (CAKI-1 renal): > 100 µM
- TGI (SNB-19 CNS): > 100 µM
- TGI (SW-620 colon): > 100 µM
- TGI (SK-MEL-5 melanoma): 34.9 µM
- TGI (OVCAR-4 ovarian): > 100 µM
- TGI (HL-60(TB) leukemia): 23.7 µM
- TGI (ACHN renal): > 100 µM
- TGI (RXF 393 renal): 72.8 µM
- TGI (NCI/ADR-RES ovarian): > 100 µM
- TGI (DU-145 prostate): 79.8 µM
- TGI (MDA-MB-231 breast): > 100 µM
- TGI (NCI-H522 lung): > 100 µM
- TGI (IGROV1 ovarian): > 100 µM
- TGI (RPMI-8226 leukemia): 62.4 µM
- TGI (EKVX NSCLC): > 100 µM
- TGI (TK-10 renal): > 100 µM
- TGI (NCI-H23 lung): > 100 µM
- TGI (HOP-62 NSCLC): > 100 µM
- TGI (T-47D breast): 65.6 µM
- TGI (HS 578T breast): > 100 µM
- TGI (HCT-116 colon): > 100 µM
- TGI (MDA-MB-435): 76.6 µM
- TGI (OVCAR-3 ovarian): > 100 µM
- TGI (786-0 renal): > 100 µM
- TGI (U251 CNS): > 100 µM
- TGI (SNB-75 CNS): > 100 µM
- TGI (SF-295 CNS): > 100 µM
- TGI (KM12 colon): > 100 µM
- TGI (HCT-15 colon): > 100 µM
- TGI (SK-MEL-2 melanoma): > 100 µM
- TGI (MOLT-4 leukemia): 34.4 µM
- TGI (NCI-H226 lung): 98 µM
- TGI (UO-31 renal): > 100 µM
- TGI (MALME-3M melanoma): > 100 µM
- TGI (K-562 leukemia): > 100 µM
- TGI (MDA-N): 88 µM
- TGI (MCF7 breast): > 100 µM
- TGI (CCRF-CEM leukemia): 46.6 µM
- TGI (COLO 205 colon): > 100 µM

Source: PubChem BioAssay (NCI)
